Molecular target: T1, GPR119 receptor (Mesocricetus auratus, UniProt A0A1U8CD06)
T1 construct: which endogenously express the GPR119 receptor; host or cells: HIT-T15 hamster pancreatic islet cells
T1 sequence (A0A1U8CD06 1-334): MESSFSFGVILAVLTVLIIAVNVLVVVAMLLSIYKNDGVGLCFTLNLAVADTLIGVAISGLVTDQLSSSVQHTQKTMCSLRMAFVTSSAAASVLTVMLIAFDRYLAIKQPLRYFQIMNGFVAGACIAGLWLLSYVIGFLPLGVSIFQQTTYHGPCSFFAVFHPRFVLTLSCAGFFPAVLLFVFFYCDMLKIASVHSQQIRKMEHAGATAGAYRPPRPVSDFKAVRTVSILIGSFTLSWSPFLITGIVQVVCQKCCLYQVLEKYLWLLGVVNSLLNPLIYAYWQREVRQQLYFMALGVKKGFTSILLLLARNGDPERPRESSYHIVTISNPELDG
Experiment: cAMP assay in HIT-T15 hamster pancreatic islet cells (functional agonist activity)
Format: cell-based
Conditions: HIT-T15 cells endogenously expressing GPR119; 30 min at 25° C.; intracellular cAMP
Experimental: The functional agonist activities of compounds of the invention were characterized using a cAMP assay in HIT-T15 hamster pancreatic islet cells (American Type Culture Collection, Manassas, Va., USA) which endogenously express the GPR119 receptor. The cells were cultured in Kaighn's modification of Ham's F12 medium (Invitrogen Corporation, Carlsbad, Calif., USA) containing 10% horse serum, 2.5% FBS, and 1% Pen/Strep and grown in 225 cm^2 tissue culture flasks until they reached 75-85% confluence.
The cells were harvested 24 h prior to assay with 5 ml Versene®, washed with Kaighn/F12 medium and then plated into white 384-well plates (9000 cells/well) containing Kaighn/F12 medium. Prior to assay, the culture medium was replaced with a Kaighn/F12 medium without phenol red (50 μL/well) containing 0.5 mM 3-isobutyl-1-methylxanthine, 0.5 mg/ml BSA. The cells were incubated in the dark for 30 min at 25° C. in the absence or presence of varying concentrations of agonist (1 μL, 100% DMSO). The incubation media was discarded and replaced with the assay lysis buffer (50 μL/well) provided in the Tropix cAMP-Screen® kit (Applied Biosystems, Foster City, Calif., USA) and the plates incubated for 45 min at 37° C. The intracellular levels of cAMP generated in the HIT-T 15 cells were measured using the Tropix kit. In brief, 20 μL of the lysate was transferred into pre-coated antibody plates (384-well; Tropix kit) along with 10 μL of alkaline phosphatase conjugate and 20 μL of anti-cAMP antibody and the plates were incubated for 1 h at room temperature while shaking. The plates were then washed 5 times with wash buffer (70 μL) and tapped dry. CSPD®/Sapphire-II™ RTU substrate/enhancer solution (Applied Biosystems, Foster City, Calif., USA; 30 μL) was added and the plates were incubated for 45 min at room temperature while shaking. The signal generated was measured using a Wallac Victor V Luminometer (PerkinElmer Life And Analytical Sciences, Inc., Waltham, Mass., USA; 1 sec/well). EC50 values were calculated using the XLFit program (ID Business Solutions Ltd., Guildford, Surrey, UK).

Compound	EC50
CCOc1ccc(Oc2ncnc3c2cnn3C2CCN(C(=O)OC(C)C)CC2)c(F)c1 [Example 18, 4-[4-(4-Ethoxy-2-fluoro-phenoxy)-pyrazolo[3,4-d]pyrimidin-1-yl]-piperidine-1-carboxylic acid isopropyl ester]	0.38 µM
CS(=O)(=O)c1ccc(Oc2ncnc3c2cnn3C2CCN(C(=O)c3nc4ccccc4s3)CC2)cc1 [Example 156, Benzothiazol-2-yl-{4-[4-(4-methanesulfonyl-phenoxy)-pyrazolo[3,4-d]pyrimidin-1-yl]-piperidin-1-yl}-methanone]	0.16 µM
CC(C)OC(=O)N1CCC(n2ncc3c(Nc4cc(F)c(F)cc4F)ncnc32)CC1 [Example 2, 4-[4-(2,4,5-Trifluoro-phenylamino)-pyrazolo[3,4-d]pyrimidin-1-yl]-piperidine-1-carboxylic acid isopropyl ester]	3.1 µM
CC(C)(C)OC(=O)N1CCC(n2ncc3c(Oc4ccc(C#N)c(F)c4)ncnc32)CC1 [Example 48, 4-[4-(4-Cyano-3-fluoro-phenoxy)-pyrazolo[3,4-d]pyrimidin-1-yl]-piperidine-1-carboxylic acid tert-butyl ester]	0.22 µM
COc1ccc(Oc2ncnc3c2cnn3C2CCN(C(=O)OC(C)(C)C)CC2)cn1 [Example 96, 4-[4-(6-Methoxy-pyridin-3-yloxy)-pyrazolo[3,4-d]pyrimidin-1-yl]-piperidine-1-carboxylic acid tert-butyl ester]	1.5 µM
COC(=O)c1ccc(Oc2ncnc3c2cnn3C2CCN(C(=O)OC(C)(C)C)CC2)c(F)c1 [Example 63, 4-[4-(2-Fluoro-4-methoxycarbonyl-phenoxy)-pyrazolo[3,4-d]pyrimidin-1-yl]-piperidine-1-carboxylic acid tert-butyl ester]	0.42 µM
COc1ccc(Oc2ncnc3c2cnn3C2CCN(C(=O)OC(C)(C)C)CC2)c(OC)n1 [Example 95, 4-[4-(2,6-Dimethoxy-pyridin-3-yloxy)-pyrazolo[3,4-d]pyrimidin-1-yl]-piperidine-1-carboxylic acid tert-butyl ester]	0.89 µM
CC(C)CS(=O)(=O)N1CCC(n2ncc3c(Oc4ccc(S(C)(=O)=O)cc4)ncnc32)CC1 [Example 171, 4-(4-Methanesulfonyl-phenoxy)-1-[1-(2-methyl-propane-1-sulfonyl)-piperidin-4-yl]-1H-pyrazolo[3,4-d]pyrimidine]	0.4 µM
C[S+]([O-])c1ccc(Oc2ncnc3c2cnn3C2CCN(C(=O)OC(C)(C)C)CC2)cc1 (stereo not drawn) [Example 58, 4-[4-(4-Methanesulfinyl-phenoxy)-pyrazolo[3,4-d]pyrimidin-1-yl]-piperidine-1-carboxylic acid tert-butyl ester]	0.42 µM
Cc1nc(-c2ccc(Oc3ncnc4c3cnn4C3CCN(C(=O)OC(C)(C)C)CC3)cc2)no1 [Example 85, 4-{4-[4-(5-Methyl-[1,2,4]oxadiazol-3-yl)-phenoxy]-pyrazolo[3,4-d]pyrimidin-1-yl}-piperidine-1-carboxylic acid tert-butyl ester]	0.55 µM
CC(C)OC(=O)N1CCC(n2ncc3c(Oc4ccccc4C#N)ncnc32)CC1 [Example 19, 4-[4-(2-Cyano-phenoxy)-pyrazolo[3,4-d]pyrimidin-1-yl]-piperidine-1-carboxylic acid isopropyl ester]	0.71 µM
CC(C)(C)OC(=O)N1CCC(n2ncc3c(Oc4ccc(S(C)(=O)=O)c(F)c4)ncnc32)CC1 [Example 61, 4-[4-(3-Fluoro-4-methanesulfonyl-phenoxy)-pyrazolo[3,4-d]pyrimidin-1-yl]-piperidine-1-carboxylic acid tert-butyl ester]	0.095 µM
CC(C)(C)OC(=O)N1CCC(n2ncc3c(Oc4c(C#N)ccc(F)c4F)ncnc32)CC1 [Example 49, 4-[4-(6-Cyano-2,3-difluoro-phenoxy)-pyrazolo[3,4-d]pyrimidin-1-yl]-piperidine-1-carboxylic acid tert-butyl ester]	0.048 µM
CC(C)OC(=O)N1CCC(n2ncc3c(Oc4ccc(=O)n(C)n4)ncnc32)CC1 [Example 31, 4-[4-(1-Methyl-6-oxo-1,6-dihydro-pyridazin-3-yloxy)-pyrazolo[3,4-d]pyrimidin-1-yl]-piperidine-1-carboxylic acid isopropyl ester]	3.5 µM
CC(C)OC(=O)N1CCC(n2ncc3c(Oc4ccc(S(C)(=O)=O)cc4F)ncnc32)CC1 [Example 23, 4-[4-(2-Fluoro-4-methanesulfonyl-phenoxy)-pyrazolo[3,4-d]pyrimidin-1-yl]-piperidine-1-carboxylic acid isopropyl ester]	0.11 µM
CC(C)(OC(=O)N1CCC(n2ncc3c(Oc4ccc(S(C)(=O)=O)cc4)ncnc32)CC1)C(F)(F)F [Example 111, 4-[4-(4-Methanesulfonyl-phenoxy)-pyrazolo[3,4-d]pyrimidin-1-yl]-piperidine-1-carboxylic acid 2,2,2-trifluoro-1,1-dimethyl-ethyl ester]	0.05 µM
CC(C)(C)OC(=O)N1CCC(n2ncc3c(Oc4cnc5[nH]ccc5c4)ncnc32)CC1 [Example 72, 4-[4-(1H-Pyrrolo[2,3-b]pyridin-5-yloxy)-pyrazolo[3,4-d]pyrimidin-1-yl]-piperidine-1-carboxylic acid tert-butyl ester]	1.2 µM
CC(C)(C)OC(=O)N1CCC(n2ncc3c(Oc4ccc([N+](=O)[O-])cc4F)ncnc32)CC1 [Example 66, 4-[4-(2-Fluoro-4-nitro-phenoxy)-pyrazolo[3,4-d]pyrimidin-1-yl]-piperidine-1-carboxylic acid tert-butyl ester]	0.75 µM
N#Cc1ccccc1Oc1ncnc2c1cnn2C1CCN(C(=O)OC2CCCC2)CC1 [Example 118, 4-[4-(2-Cyano-phenoxy)-pyrazolo[3,4-d]pyrimidin-1-yl]-piperidine-1-carboxylic acid cyclopentyl ester]	0.34 µM
Cc1nc(S(C)(=O)=O)ccc1Oc1ncnc2c1cnn2C1CCN(C(=O)OC(C)(C)C)CC1 [Example 98, 4-[4-(6-Methanesulfonyl-2-methyl-pyridin-3-yloxy)-pyrazolo[3,4-d]pyrimidin-1-yl]-piperidine-1-carboxylic acid tert-butyl ester]	0.096 µM
CC(C)(C)OC(=O)N1CCC(n2ncc3c(Oc4ccccc4F)ncnc32)CC1 [Example 32, 4-[4-(2-Fluoro-phenoxy)-pyrazolo[3,4-d]pyrimidin-1-yl]-piperidine-1-carboxylic acid tert-butyl ester]	0.19 µM
CC(C)c1noc(N2CCC(n3ncc4c(Oc5ccc(S(C)(=O)=O)cc5F)ncnc43)CC2)n1 [Example 127, 4-(2-Fluoro-4-methanesulfonyl-phenoxy)-1-[1-(3-isopropyl-[1,2,4]oxadiazol-5-yl)-piperidin-4-yl]-1H-pyrazolo[3,4-d]pyrimidine]	0.068 µM
CS(=O)(=O)c1ccc(Oc2ncnc3c2cnn3C2CCN(C(=O)c3cc(Cl)cc(Cl)c3)CC2)cc1 [Example 150, (3,5-Dichloro-phenyl)-{4-[4-(4-methanesulfonyl-phenoxy)-pyrazolo[3,4-d]pyrimidin-1-yl]-piperidin-1-yl}-methanone]	2.1 µM
CC(C)OC(=O)N1CCC(n2ncc3c(Oc4ccccc4)ncnc32)CC1 [Example 15, 4-(4-Phenoxy-pyrazolo[3,4-d]pyrimidin-1-yl)-piperidine-1-carboxylic acid isopropyl ester]	2 µM
CS(=O)(=O)c1ccc(Oc2ncnc3c2cnn3C2CCN(C(=O)C3CCCC3)CC2)cc1 [Example 141, Cyclopentyl-{4-[4-(4-methanesulfonyl-phenoxy)-pyrazolo[3,4-d]pyrimidin-1-yl]-piperidin-1-yl}-methanone]	0.42 µM
Cc1ncccc1Oc1ncnc2c1cnn2C1CCN(C(=O)Oc2ccc([N+](=O)[O-])cc2)CC1 [Example 123, 4-[4-(2-Methyl-pyridin-3-yloxy)-pyrazolo[3,4-d]pyrimidin-1-yl]-piperidine-1-carboxylic acid 4-nitro-phenyl ester]	2.7 µM
CS(=O)(=O)c1ccc(Oc2ncnc3c2cnn3C2CCN(C(=O)C3CCC3)CC2)cc1 [Example 140, Cyclobutyl-{4-[4-(4-methanesulfonyl-phenoxy)-pyrazolo[3,4-d]pyrimidin-1-yl]-piperidin-1-yl}-methanone]	0.75 µM

From US8188098B2, “GPR119 receptor agonists” (Hoffmann-La Roche Inc., priority 2008, dated 2012)
